Measured values: patent US7262192B2, “Substituted pyrazolo[4,3-d]pyrimidines and their use as PDE-5 inhibitors” (Pfizer Inc., priority 2003, dated 2007)

target: cGMP-specific PDE-5 (UniProt O76074); assay: PDE-5 inhibition, batch method or scintillation proximity assay; assay type: biochemical, human; conditions: activity against PDE-5; representative preferred compounds
Description: The compounds of the invention are inhibitors of cyclic guanylate monophosphate (cGMP)-specific phosphodiesterase type 5 (PDE-5 inhibitors).
The required PDE enzymes can be isolated from a variety of sources, including human corpus cavernosum, human and rabbit platelets, human cardiac ventricle, human skeletal muscle and bovine retina, essentially by a modification of the method of Thompson, W J et al.; Biochemistry 18(23), 5228-5237, 1979, as described by Ballard S A et al.; J. Urology 159(6), 2164-2171, 1998. In particular, cGMP-specific PDE-5 and cGMP-inhibited cAMP PDE-3 can be obtained from human corpus cavernosum tissue, human platelets or rabbit platelets; cGMP-stimulated PDE-2 was obtained from human corpus cavernosum; calcium/calmodulin (Ca/CAM)-dependent PDE-1 from human cardiac ventricle; cAMP-specific PDE-4 from human skeletal muscle; and photoreceptor PDE-6 from bovine retina. Phosphodiesterases 7-11 can be generated from full length human recombinant clones transfected into SF9 cells.
Assays can be performed either using a modification of the “batch” method of Thompson W J and Appleman M M; Biochemistry 10(2),311-316, 1971, essentially as described by Ballard S A et al.; J. Urology 159(6), 2164-2171, 1998, or using a scintillation proximity assay for the direct detection of [^3H]-labelled AMP/GMP using a modification of the protocol described by Amersham plc under product code TRKQ7090/7100. In summary, for the scintillation proximity assay the effect of PDE inhibitors was investigated by assaying a fixed amount of enzyme in the presence of varying inhibitor concentrations and low substrate, (cGMP or cAMP in a 3:1 ratio unlabelled to [^3H]-labeled at a concentration of ˜⅓ Km or less) such that IC50≈Ki. The final assay volume was made up to 100 μL with assay buffer [20 mM Tris-HCl pH 7.4, 5 mM MgCl2, 1 mg/mL bovine serum albumin]. Reactions were initiated with enzyme, incubated for 30-60 min at 30° C. to give <30% substrate turnover and terminated with 50 μL silicate SPA beads (containing 3 mM of the respective unlabelled cyclic nucleotide for PDEs 9 and 11).

First: CCOCCn1nc(C)c2nc(N3CC(C)NCC3C)nc(Nc3ccncn3)c21 (stereo not shown) [Example 138]
Second: CCOCCn1nc(CC)c2nc(N3CC(C)NCC3C)nc(Nc3ccncn3)c21 (stereo not shown) [Example 141]
The IC50 of the first is 2.2-fold higher: 0.33 nM for the first, 0.15 nM for the second.

Compared with `CCOCc1nn(CCOCC(F)(F)F)c2c(Nc3cccc(C)n3)nc(N3CCNC(C)C3)nc12` (stereo not shown) [Example 255], `CCOCc1nn(CCOCC(F)(F)F)c2c(Nc3cc(C)ccn3)nc(N3CCNC(C)C3)nc12` (stereo not shown) [Example 256] is 2.7-fold higher in IC50: 1.43 nM for the first, 3.89 nM for the second.

First: CCOCCn1nc(CC)c2nc(N(C)C3CCN(C)C3)nc(Nc3cc(C)ccn3)c21 (stereo not shown) [Example 162]
Second: CCOCCn1nc(CC)c2nc(N(C)C3CCN(C)CC3)nc(Nc3ccncn3)c21 [Example 2]
The IC50 of the first is 2.1-fold lower: 0.24 nM for the first, 0.5 nM for the second.

First: CCCOCCn1nc(C)c2nc(N3CCNC(C)C3)nc(Nc3ccncn3)c21 (stereo not shown) [Example 23]
Second: CCOCCn1nc(C)c2nc(N3CCNC(C)C3)nc(Nc3ccncn3)c21 (stereo not shown) [Example 11]
The IC50 of the first is 1.5-fold higher: 0.47 nM for the first, 0.31 nM for the second. The second is the more potent here.

Going from `CCOCCn1nc(COC)c2nc(N(C)C)nc(Nc3cc(C)ccn3)c21` [Example 185, 1-(2-Ethoxyethyl)-3-methoxymethyl-N^5,N^5-dimethyl-N^7-(4-methylpyridin-2-yl)-1H-pyrazolo[4,3-d]pyrimidine-5,7-diamine] to `CCOCCn1nc(CO)c2nc(N(C)CC)nc(Nc3cc(C)ccn3)c21` [Example 181, [1-(2-Ethoxyethyl)-5-(N-ethyl-N-methylamino)-7-(4-methylpyridin-2-ylamino)-1H-pyrazolo[4,3-d]pyrimidin-3-yl]methanol], the IC50 falls from 1.32 nM to 0.41 nM (3.2-fold).

Compared with `CCOCCn1nc(CC)c2nc(N3CCNC(C)C3)nc(Nc3ccncn3)c21` (stereo not shown) [Example 15], `CCOCCn1nc(COC)c2nc(N3CCN[C@H](C)C3)nc(Nc3cccc(C)n3)c21` [Example 211] is 25-fold higher in IC50: 0.11 nM for the first, 2.7 nM for the second.

Compound `CCOCCn1nc(C)c2nc(N(C)[C@H]3CCN(C)C3)nc(Nc3ccncn3)c21` [Example 191, 1-(2-Ethoxyethyl)-N^5,3-dimethyl-N^5-[(3S)-1-methylpyrrolidin-3-yl]-N^7-pyrimidin-4-yl-1H-pyrazolo[4,3-d]pyrimidine-5,7-diamine] has an IC50 of 2.4 nM.
